{
  "source": "patent US10722498B2",
  "about": "“Acetazolamide ophthalmic solution” (INNOVATIVE NANO & MICRO TECHNOLOGIES PVT LTD (INM …, priority 2017, dated 2020)",
  "key": {"[1]": {"test_system": "New Zealand white rabbit eyes", "experiment": "Measurement of intraocular pressure in rabbit eyes (tonometry)", "format": "in vivo", "conditions": "rabbits, oral acetazolamide 12.92 mg/kg", "method": "The inhibition of the ocular hypertension was determined by the following protocol: The experiments were performed in new New Zealand white rabbit eyes by using tonometry method. Rabbits were divided into groups; where each group consists of 4 animals. Group 1, Group 2, Group 3, Group 4 and Group 5 of Rabbits are administered with the predetermined concentrations of ophthalmic compositions of Example 1, 2, 3, 4 and 5 respectively. Group 6 of Rabbits are administered with oral acetazolamide 12.92 mg/kg. The intraocular pressure was measured at 0, 0.5, 1, 4, 8, 12 hrs. After 6 hours, one more administration of ophthalmic composition of Example 1 was instilled in Group 1 of Rabbits and the intraocular pressure was measured.\nThe percentage change in the intraocular pressure is depicted in the following table 1."}, "[2]": {"conditions": "cited from earlier work"}},
  "data": [
    {"smiles": "CC(=O)Nc1nnc(S(N)(=O)=O)s1", "note": "[Oral acetazolamide, acetazolamide]", "values": [
      {"measurement": "percentage change in the intraocular pressure", "setting": "[1]; 0.5 hrs after administration, 4 per group, eye drops instilled", "result": 18.00, "unit": "%"},
      {"measurement": "percentage change in the intraocular pressure", "setting": "[1]; 1 hr after administration, eye drops instilled", "result": 14.00, "unit": "%"},
      {"measurement": "percentage change in the intraocular pressure", "setting": "[1]; 4 hrs after administration, eye drops instilled", "result": 14.00, "unit": "%"},
      {"measurement": "percentage change in the intraocular pressure", "setting": "[1]; 6 hrs after administration, eye drops instilled", "result": 14.00, "unit": "%"},
      {"measurement": "percentage change in the intraocular pressure", "setting": "[1]; 8 hrs after administration, Group 1 (Example 1) had a second instillation after 6 hours", "result": 6.00, "unit": "%"},
      {"measurement": "percentage change in the intraocular pressure", "setting": "[1]; 12 hrs after administration, Group 1 (Example 1) had a second instillation after 6 hours", "result": 6.00, "unit": "%"},
      {"measurement": "solubility in water", "setting": "[2]", "result": "very low solubility in water"}
    ]}
  ]
}
